Data from ChEMBL document CHEMBL3507680, “University of Dundee, Gates Library screen for HepG2 cell viability”.

test: Human HepG2 cell viability assay in 384 well format; format: toxicity, cell-based; design: dose 125 nL, time 70.5 hour; concentration not given beside the values; settings: HepG2 cells, read-out: Inhibition

SMILES | cytotoxicity at 70.5 h
Cc1cc(CN2CCC(CNS(=O)(=O)c3ccccc3Cl)CC2)c(C)o1 | -10.4%
CS(=O)(=O)NCC1CCN(C(=O)Oc2ccccc2)CC1 | -3.79%
COc1ccc(S(=O)(=O)NCCCc2ccc(N(C)C)cc2)cc1F | -1.57%
CCOc1ccc(S(=O)(=O)NCCCc2ccc(N(C)C)cc2)cc1F | 0.733%
CCOCC(=O)NCC1CCN(Cc2ccsc2)CC1 | 1.54%
CCn1nccc1C(=O)Nc1nc(C)c(C(C)=O)s1 | -5.2%
Cc1nnc2ccc(OCCNS(=O)(=O)c3cccs3)nn12 | -9.99%
Cc1ccc(C)c(S(=O)(=O)NCCOc2ccc3nnc(C)n3n2)c1 | 42.7%
CC(=O)Nc1ccc(SCC(=O)NCC2CCCO2)nn1 (centres undefined) | -2.02%
COc1cccc(OC)c1C(=O)NCC(c1cccn1C)N1CCCC1 (centres undefined) | -5.44%
Cn1cccc1C(CNC(=O)COc1ccc(Cl)cc1Cl)N1CCCC1 (centres undefined) | -16.7%
COc1ccc(C(=O)NCC(c2cccn2C)N2CCN(C)CC2)cc1 (centres undefined) | -4.93%
COc1ccc(S(=O)(=O)NCC(c2cccn2C)N(C)C)c(C)c1 (centres undefined) | -12.6%
Cc1nnc(C2CCN(C(=O)c3ccsc3)CC2)s1 | -5.71%
COC(=O)c1ccc(C(=O)N2CCC(c3nnc(C)s3)CC2)cc1 | -10.2%
O=S(=O)(c1cccs1)N1CCN(Cc2nc(-c3ccco3)cs2)CC1 | 1.85%
O=S(=O)(c1ccc(Cl)s1)N1CCN(Cc2nc(-c3ccco3)cs2)CC1 | -13.8%
CCS(=O)(=O)N1CCC(c2nnc(C3CC3)o2)CC1 | 3.63%
CC(C)CNC(=O)c1cn(C(C)C)cc2c(=O)[nH]nc1-2 | -7.94%
CC(C)n1cc(C(=O)NCCCn2ccnc2)c2n[nH]c(=O)c-2c1 | -6.63%
Cc1csc(NC(=O)Cn2nc(C)ccc2=O)n1 | -9.42%
COCCc1nnc(NC(=O)Cc2ccccc2Cl)o1 | -13.9%
Cc1nccn1CC1CCN(C(=O)c2ccccc2)CC1 | -7.01%

SMILES | cytotoxicity at 70.5 h
COc1ccc(S(=O)(=O)N2CCC(Cn3ccnc3)CC2)cc1 | -6.35%
CS(=O)(=O)N1CCC(C(=O)N2CCC(Cn3cccn3)CC2)CC1 | -12.3%
O=C(Nc1ccc(CC(=O)N2CCCC2)cc1)NC1CC1 | -7.44%
Cc1nc2c(c(=O)n1C)CCN(C(=O)CCc1ccccn1)CC2 | -5.46%
COc1cccc(N2CCN(C(=O)CCO)CC2=O)c1 | -8.46%
CN1Cc2ccccc2CC1C(=O)N1CCN(CCS(C)(=O)=O)CC1 (centres undefined) | 5.5%
Cc1cc(=O)[nH]c(SC(C)C(=O)N2CCC(NS(C)(=O)=O)CC2)n1 (centres undefined) | 2.17%
O=C(NCCC1CN(Cc2c[nH]cn2)CCO1)Nc1ccccc1 (centres undefined) | -8.29%
O=C(CCCn1cncn1)N1CCC2(CC1)[C@H](O)C[C@@H]2OCCO | -6.43%
O=C(NCc1ccco1)c1cc(N2CC[C@@H](O)C2)ccn1 | 30.9%
O=C(NCCc1ccncc1)c1ccc(S(=O)(=O)NC2CCC2)cc1 | -9.51%
CN1CCCC2(CCN(c3cccc(C#N)n3)C2)C1=O (centres undefined) | -8.81%
CC(C)n1ccnc1C1CCN(C(=O)c2ccc(SCCO)cc2)CC1 | -8.09%
Cc1nc2c(c(N(C)C)n1)CCN(C(=O)c1sccc1S(N)(=O)=O)C2 | -7%
O=C(O)c1cccnc1CN1CCCCC1CCc1cccs1 (centres undefined) | 12.3%
O=C(Cc1ccsc1)N1CCC(Cn2cc(CCO)nn2)CC1 | -14.1%
CCC(C)N(Cc1cccnc1)Cc1ccc2c(c1)OCCO2 (centres undefined) | 3.73%
COc1cc(N2CCN(Cc3ccc(C)o3)C(CCO)C2)nc(N)n1 (centres undefined) | -4.16%
COCc1nc(CNc2cc(C)nc(N3CCCCC3)n2)no1 | -7.86%
c1ccc(-c2nc3c(c(NCCc4c[nH]cn4)n2)CCNC3)cc1 | -12.1%
CCC(C)NC(=O)NCc1cc2n(n1)CCCN(C1CCCCC1)C2 (centres undefined) | 4.95%
O=C(CCn1cc(Cl)cn1)N1C[C@@H]2CC[C@H](C1)N(Cc1ccccn1)C2 | -11.7%
Cc1oc(-c2ccc(F)cc2)nc1CN1CCOCS1(=O)=O | -12.2%

SMILES | cytotoxicity at 70.5 h
Fc1ccc(C(CNc2ccncn2)N2CCCCC2)cc1 (centres undefined) | -13.6%
CCn1ccnc1C1CCN(Cc2cccc(Cl)c2)CC1 | 37.8%
Cc1nc(N)nc(C)c1Cc1nc(C2CC2)n[nH]1 | -0.863%
COc1ccc(C(=O)N2CCOC3(CNCCOC3)C2)c(OC)n1 (centres undefined) | 28%
O=C(NCCN1CCCCCC1)c1coc(COc2ccc(F)cc2)n1 | 8.68%
CCOCCn1c(=O)n(CCC=C(C)C)c2cc(C(=O)O)cnc21 | -4.64%
Cc1ccccc1CC1(C(=O)O)CCCN(c2ncnc3[nH]ccc23)C1 (centres undefined) | -5.97%
Cc1ccccc1CSc1nc(N)cc(N2CCOCC(CO)C2)n1 (centres undefined) | 6.16%
Cc1cc(NCCS(C)(=O)=O)nc2cc3c(cc12)CCC3 | -5.3%
CCNc1ncc(C(=O)NCCc2csc(-c3ncccn3)n2)cn1 | 5.7%
CCC(CC)C(=O)NS(=O)(=O)c1ccc(C#N)cc1C(F)(F)F | -0.398%
CC(C)CC(=O)NS(=O)(=O)c1ccc(C#N)cc1C(F)(F)F | -3.13%
COc1ccc(Cl)cc1NCC(=O)NCc1cccnc1OC | 17.6%
Cn1cnc(S(=O)(=O)NCCN2CCCCCC2)c1Cl | 4.34%
CCC(C)C(=O)NS(=O)(=O)c1ccc(C#N)cc1C(F)(F)F (centres undefined) | -3.39%
COc1ccnc(N2CCN(C(=O)c3ccn(C)c(=O)c3)CC2)n1 | -1.1%
COc1cc(C)nc(N2CCN(C(=O)c3ccn(C)c(=O)c3)CC2)n1 | -0.122%
Cc1nc(CN2CCC(N(C)Cc3nnc(C4CC4)n3C)C2)cs1 (centres undefined) | -1.39%
Cc1ccccc1CNC(=O)CN1CCCC(Cc2nccn2C)C1 (centres undefined) | -1.13%
CCNC(=O)NC(=O)CNC(C)(C)c1ccc2c(c1)OCO2 | -4.4%
CCCNC(=O)NC(=O)CNC(C)(C)c1ccc2c(c1)OCCO2 | -2.49%
Cc1ccc(N2CCCN(C(=O)CCC3CCCO3)CC2)nn1 (centres undefined) | 4.12%
COc1ccccc1N1CCC(CNCc2ccc(C#N)cc2)C1 (centres undefined) | 2.02%

SMILES | cytotoxicity at 70.5 h
Cc1cc(CN2CCC(N(C)Cc3nnc(C4CC4)n3C)C2)on1 (centres undefined) | -2.5%
Cc1nn(C)c(Cl)c1C1CCCN1C(=O)c1ccc(O)nc1 (centres undefined) | 23.1%
CC1COCCN1Cc1nc(-c2cccc(C(F)(F)F)c2)no1 (centres undefined) | -2.89%
Cc1nn(C)c(N(C)C)c1CNCc1cccc(Cn2ccnc2)c1 | 3.64%
O=C(CCc1nccs1)N1CCCC(n2cccn2)C1 (centres undefined) | 1.23%
Cc1cnn(C2CCCN(C(=O)CCCc3ccccn3)C2)c1 (centres undefined) | -1.28%
CC(C)n1cc(CN2CCCN(C(=O)CC3CCCO3)CC2)cn1 (centres undefined) | -4.54%
Cc1nc(C)n(CC2CCCN(Cc3cccnc3)C2)n1 (centres undefined) | -0.814%
CC(C(=O)Nc1ccc(N2CCCCC2)nc1)n1ccnc1 (centres undefined) | 25.5%
COc1c(C2CCCN2C(=O)c2ccc3c(c2)OCO3)c(C)nn1C (centres undefined) | -2.19%
COc1c(CNCc2cccc(Cn3cncn3)c2)c(C)nn1C | -0.463%
Cc1nn(C)c(Cl)c1C1CCCN1C(=O)c1cccc(C#N)c1 (centres undefined) | 0.647%
COc1cccc(-c2noc(CN3CCOCC3C)n2)c1 (centres undefined) | -2.13%
CC(C(=O)Nc1ccc(N2CCCCC2)nc1)n1cncn1 (centres undefined) | 26.7%
O=C(NCC1CCCOC1)c1ccc(-c2ccccc2)[nH]c1=O (centres undefined) | 0.0722%
Cc1cccc(-c2ccc(C(=O)NCC3CCCOC3)c(=O)[nH]2)c1 (centres undefined) | -9.36%
O=C(NCC1CCOC1)c1ccc(-c2ccccc2)[nH]c1=O (centres undefined) | -7.11%
Cc1cnn(C2CCCN(C(=O)CCc3c(C)noc3C)C2)c1 (centres undefined) | -2.08%
Cc1nn(CC(C)C)c(N(C)C)c1CNCc1ccccc1CO | -0.0473%
Cc1nccn1CCCC(=O)N1CCCC(c2noc(C(C)C)n2)C1 (centres undefined) | -2.96%
CC(C)c1nc(C2CCCN(C(=O)CCn3cncn3)C2)no1 (centres undefined) | -2.58%
Cc1nn(C)c(Cl)c1C1CCCN1C(=O)c1ccoc1C (centres undefined) | -4.13%
Cc1nn(C)c(Cl)c1C1CCCN1C(=O)c1ccc2c(c1)COC2 (centres undefined) | -0.781%

SMILES | cytotoxicity at 70.5 h
Cc1nc(CN2CCCC(c3cc(C(N)=O)[nH]n3)C2)oc1C (centres undefined) | -1.85%
COc1ccccc1CNC(C)c1ccc2[nH]c(=O)[nH]c2c1 (centres undefined) | 1.17%
Cc1ccccc1C1(C(=O)NCCN2CCCC(C)C2)CCOCC1 (centres undefined) | 32.7%
Cc1ccccc1C1(C(=O)NCCN2CCCCC2C)CCOCC1 (centres undefined) | -6.68%
Cc1ccccc1C1(C(=O)NCCN(C)C)CCOCC1 | -3.78%
c1cc(-c2noc(CN3CCn4c(nnc4C4CC4)C3)n2)cs1 | -19.2%
Cc1nc2n(n1)CC(NCc1cnn(-c3ccccc3)n1)CC2 (centres undefined) | -9.59%
COc1ccc(NC(=O)NCc2ccnc(N(C)C)c2)cn1 | 14.3%
O=C(c1sccc1Br)N(Cc1cccnc1)C1CC1 | -13.1%
Cc1cnn(C2CCCN(C(=O)c3cccc(-n4cnnn4)c3)C2)c1 (centres undefined) | -3.6%
Cc1nnc2n1CCN(Cc1nc(-c3ccoc3)no1)C2 | 13.6%
CCC(=O)N1CCN(C(=O)NCCOc2ccc3c(c2)CCC3)CC1 | -8.5%
Cc1ccc(-c2nnc(CN3CCCC(Cn4cncn4)C3)o2)cc1 (centres undefined) | -1.97%
c1ccc(-c2nnc(CN3CCCC(Cn4cncn4)C3)o2)cc1 (centres undefined) | -7.29%
O=C(O)c1cc(S(=O)(=O)N2CCOc3ccccc32)cc(Cl)c1Cl | -9.63%
O=C(O)c1ccc(F)c(S(=O)(=O)N2CCOc3ccccc32)c1 | -4.17%
Cc1cc(C)c(C(=O)N2CCOCC2c2c(C)n[nH]c2C)o1 (centres undefined) | -6.5%
Cc1nccn1C1CCCN(C(=O)c2sccc2-n2cnnn2)C1 (centres undefined) | -8.22%
CC(NCc1c(C(C)C)nn(C)c1N1CCOCC1)C(=O)N(C)C (centres undefined) | 23%
Cc1nn(C)c(N(C)C)c1CNCCS(C)(=O)=O | 20.1%
c1cnc(-c2nc(CNC3CCc4ncnn4C3)cs2)nc1 (centres undefined) | -6.68%
Cc1cc(C(=O)N2CCN(C)CC2)nn1CC(=O)NCc1cccs1 | -4.64%
